# Data taken from paper PMC12749252 (Nature Communications, 2025).
# Tests used:
# [1] = target: GCN2 (Homo sapiens, UniProt Q9P2K8); experiment: Eurofins KinaseProfiler in vitro; type: biochemical
# [2] = target: WEE1 (Homo sapiens, UniProt P30291); experiment: NanoBRET target engagement in HEK293 cells; type: cell-based
# WEE1, sequence (P30291 whole entry): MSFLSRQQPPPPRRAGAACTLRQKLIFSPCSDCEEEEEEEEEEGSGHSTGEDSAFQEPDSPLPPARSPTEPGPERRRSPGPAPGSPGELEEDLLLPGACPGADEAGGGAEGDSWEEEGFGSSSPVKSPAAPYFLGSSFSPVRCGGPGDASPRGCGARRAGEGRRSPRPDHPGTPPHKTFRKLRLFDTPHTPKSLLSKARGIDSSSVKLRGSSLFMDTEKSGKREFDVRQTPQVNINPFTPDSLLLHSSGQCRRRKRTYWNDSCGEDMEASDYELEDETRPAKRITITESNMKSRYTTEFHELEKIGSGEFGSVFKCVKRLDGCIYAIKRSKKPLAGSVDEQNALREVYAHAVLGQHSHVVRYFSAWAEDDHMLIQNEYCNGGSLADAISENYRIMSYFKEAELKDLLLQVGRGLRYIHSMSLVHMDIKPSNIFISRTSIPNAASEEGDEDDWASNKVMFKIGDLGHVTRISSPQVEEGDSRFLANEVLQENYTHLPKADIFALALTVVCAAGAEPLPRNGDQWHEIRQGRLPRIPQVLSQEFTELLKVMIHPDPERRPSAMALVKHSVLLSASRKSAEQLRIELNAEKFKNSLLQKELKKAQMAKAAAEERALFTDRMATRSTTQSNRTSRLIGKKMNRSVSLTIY
# GCN2, sequence (Q9P2K8 whole entry): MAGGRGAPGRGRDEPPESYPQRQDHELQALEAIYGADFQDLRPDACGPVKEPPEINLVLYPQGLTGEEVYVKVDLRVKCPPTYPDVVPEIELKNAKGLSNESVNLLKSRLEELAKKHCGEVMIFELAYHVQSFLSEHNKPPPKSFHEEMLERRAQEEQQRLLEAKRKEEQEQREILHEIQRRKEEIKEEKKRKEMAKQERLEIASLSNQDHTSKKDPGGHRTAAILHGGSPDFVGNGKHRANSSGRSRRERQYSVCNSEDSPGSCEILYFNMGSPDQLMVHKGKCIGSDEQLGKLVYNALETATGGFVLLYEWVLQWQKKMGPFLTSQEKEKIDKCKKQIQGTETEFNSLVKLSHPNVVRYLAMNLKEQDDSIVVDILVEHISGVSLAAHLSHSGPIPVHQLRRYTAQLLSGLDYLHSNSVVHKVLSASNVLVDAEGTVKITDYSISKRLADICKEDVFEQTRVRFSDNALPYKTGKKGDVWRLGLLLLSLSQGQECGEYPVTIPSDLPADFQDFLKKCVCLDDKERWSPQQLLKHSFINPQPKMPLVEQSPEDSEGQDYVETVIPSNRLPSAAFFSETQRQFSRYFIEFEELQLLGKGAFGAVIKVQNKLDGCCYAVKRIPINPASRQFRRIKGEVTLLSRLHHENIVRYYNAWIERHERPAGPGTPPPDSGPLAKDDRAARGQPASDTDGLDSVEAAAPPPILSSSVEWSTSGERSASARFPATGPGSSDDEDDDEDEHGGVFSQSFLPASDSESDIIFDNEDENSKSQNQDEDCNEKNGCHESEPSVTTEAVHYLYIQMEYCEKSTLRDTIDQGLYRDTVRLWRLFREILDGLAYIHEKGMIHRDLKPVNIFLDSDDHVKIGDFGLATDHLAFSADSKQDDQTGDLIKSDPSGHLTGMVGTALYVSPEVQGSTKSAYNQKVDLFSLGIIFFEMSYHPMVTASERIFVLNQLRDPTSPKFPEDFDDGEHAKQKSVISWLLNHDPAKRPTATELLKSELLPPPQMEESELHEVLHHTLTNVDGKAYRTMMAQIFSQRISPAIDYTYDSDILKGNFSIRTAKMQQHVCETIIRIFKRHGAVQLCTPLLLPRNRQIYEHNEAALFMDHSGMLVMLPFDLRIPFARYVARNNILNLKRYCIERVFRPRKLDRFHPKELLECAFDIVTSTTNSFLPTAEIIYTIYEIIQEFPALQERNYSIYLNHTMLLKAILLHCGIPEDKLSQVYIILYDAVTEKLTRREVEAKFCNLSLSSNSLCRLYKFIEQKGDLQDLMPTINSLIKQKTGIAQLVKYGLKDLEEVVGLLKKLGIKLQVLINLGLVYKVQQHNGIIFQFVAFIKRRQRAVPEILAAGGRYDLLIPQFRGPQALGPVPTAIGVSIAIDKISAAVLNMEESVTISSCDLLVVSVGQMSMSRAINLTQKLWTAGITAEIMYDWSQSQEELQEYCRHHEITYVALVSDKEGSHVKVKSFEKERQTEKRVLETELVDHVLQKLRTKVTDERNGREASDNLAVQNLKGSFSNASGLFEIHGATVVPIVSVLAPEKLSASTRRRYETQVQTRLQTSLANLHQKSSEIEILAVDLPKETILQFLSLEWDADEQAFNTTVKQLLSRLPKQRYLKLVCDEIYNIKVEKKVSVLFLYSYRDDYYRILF
IC50 [1] [nM],Structure (SMILES),NanoBRET target engagement in HEK293 cells (only at high doses) [2]
140,C=CCn1c(=O)c2cnc(Nc3ccc(N4CCN(C)CC4)cc3)nc2n1-c1cccc(C(C)(C)O)n1 [AZD1775],–
–,Cc1cc2c(C(N)=O)c(N)n(-c3c(C)ccc(O)c3C)c2nc1C [RP-6306],while PKMYT1i only interacted at high doses (Fig. 5c)
